The values that follow are results of earlier work, collected in patent US20050020536A1, “Highly pure fondaparinux sodium composition, process for preparing said composition and pharmaceutical compositions containing it as active principle” (priority 2003, published 2005).

For this data set, the system named is factor Xa. As to conditions: general statement in the introduction, no method given.

As for `CO[C@H]1O[C@H](COS(=O)(=O)[O-])[C@@H](O[C@@H]2O[C@@H](C(=O)[O-])[C@@H](O[C@H]3O[C@H](COS(=O)(=O)[O-])[C@@H](O[C@@H]4O[C@H](C(=O)[O-])[C@@H](O[C@H]5O[C@H](COS(=O)(=O)[O-])[C@@H](O)[C@H](O)[C@H]5NS(=O)(=O)[O-])[C@H](O)[C@H]4O)[C@H](OS(=O)(=O)[O-])[C@H]3NS(=O)(=O)[O-])[C@H](O)[C@H]2OS(=O)(=O)[O-])[C@H](O)[C@H]1NS(=O)(=O)[O-].[Na+].[Na+].[Na+].[Na+].[Na+].[Na+].[Na+].[Na+].[Na+].[Na+]` [Fondaparinux sodium, methyl O-2-deoxy-6-O-sulfo-2-(sulfoamino)-α-D-glucopyranosyl-(1→4)-O-β-D-glucopyranuronosyl-(1→4)-O-2-deoxy-3,6-di-O-sulfo-2-(sulfoamino)-α-D-glucopyranosyl-(1→4)-2-O-sulfo-α-D-glucopyranosyl-(1→4)-O-2-O-sulfo-L-idopyranurosyl-(1→4)-2-deoxy-6-O-sulfo-2-(sulfoamino)-α-D-glucopyranoside, decakissodium salt], the “anti-factor Xa (anti Xa) activity” value is reported as “very powerful”.
